Measurements: patent publication US8829035B2, “Agent for treatment or prevention of diseases associated with activity of neurotrophic factors” (Sumitomo Chemical Company, Limited, priority 2009, dated 2014)
Counter-ions that a name gives are not always drawn.

system: activity of 200 ng/mL of NGF (NXF promoter-driven luciferase in PC12 cells); test: Luciferase reporter assay (NXF promoter) in PC12 cells: potentiation of NGF activity; assay type: cell-based, rat; design: key: +: Showed relatively weak potentiation (potentiation only exhibited at 10 μM); ++: Showed potentiation; +++: Showed particularly strong potentiation (2-fold or greater potentiation of the activity of 200 ng/mL of NGF at 1 μM); settings: Test Example 4, same manner as Test Example 1, relative luciferase activity vs 200 ng/mL NGF alone
Protocol: The forward primer 5′-[…]-3′ and the reverse primer 5′-[…]-3′ were prepared as the PCR primers according to the sequence information for the NXF gene genome sequence (Accession Nos. AB054577 and NC—000085), and the PCR method was used to isolate from approximately 5 kbp upstream from the translated region of the NXF gene promoter portion to the vicinity of the transcription start site. For this, 1 μg of mouse genomic DNA (Takara) was used as the template, and the 2-step PCR reaction was carried out for 35 cycles, the conditions for which were 95° C./1 m in the denaturing step, and 68° C./8 m in the annealing and extension steps, to obtain the PCR product. The NXF promoter fragment was inserted into the SmaI site of the pGL3 Basic vector (Promega) in the upstream of luciferase gene to prepare a reporter plasmid that would express the luciferase enzyme driven by the NXF promoter.
PC12 cells (available from the ATCC) were cultured using RPMI medium (GIBCO-BRL) with 5% FCS (GIBCO-BR) and 15% horse serum (GIBCO-BRL) added, and 1 mM in sodium pyruvate (GIBCO-BRL), at 37° C. in the presence of 5% CO2. After transfection in 10^6 of these PC12 cells for 2 days with 12 μg of the above-described reporter plasmid and 1 μg of pRC/RSV vector (Invitrogen) using the Lipofectamine 2000 reagent (Invitrogen), the medium was exchanged for fresh medium containing 40 mg/L of geneticin sulfate (GIBCO), and this was cultured continuously. Culturing was continued for approximately 1 month with medium exchange of the cultured medium containing 40 mg/L of geneticin sulfate (GIBCO) every several days, with the result that multiple colonies of the obtained cells were picked up. Among these, one of the colonies that induced luciferase activity in the presence of 40 ng/mL of NGF (Wako Pure Chemicals) was selected and used for the cells to evaluate the activity of the compounds below.
These cells were set up in 96-well plates with 80% confluence, and the luciferase reporter assay was conducted using the Promega Steady Glo luciferase assay kit. The procedure was carried out overnight (approx. 16 hours) using culture medium containing the compound, and the Steady Glo substrate solution was added to the cells in half-diluted in PBS after removal of all remaining medium containing the compound. After this was allowed to stand for 30 minutes, the respective quantity of light produced was measured with a luminometer (Envision Perkin Elmer).
The activity of the compounds for evaluation was measured as the potentiation of the activity of 200 ng/mL of NGF. For the experiment control wells, the negative control well had medium containing only a final concentration of 0.1% DMSO, the positive control well had medium containing a saturation concentration of NGF. In addition, a test well was set up containing 0.1% DMSO with 200 ng/mL of NGF added corresponding to a 0 compound concentration. When its luciferase activity was taken as a standard, the relative luciferase activity could be calculated for the test wells to which the compound solution (dissolved in DMSO and prepared to have a final DMSO concentration of 0.1%) had been added in addition to the 200 ng/mL of NGF, to find the potentiation of the activity of 200 ng/mL of NGF due to that compound.

For `NCc1nc2cc(-c3nc4ccccc4o3)ccc2n1C1CCOCC1` [Ex. 67, 2-aminomethyl-5-(benzoxazol-2-yl)-1-(tetrahydropyran-4-yl)benzimidazole hydrochloride], which “Activity (potentiation of NGF activity)” value is on record?
The value was “+”.

With `c1ccc(CCc2nc3cc(-c4nc5ccccc5o4)ccc3n2C2CCOCC2)cc1` [Ex. 68, 5-(benzoxazol-2-yl)-2-(2-phenylethyl)-1-(tetrahydropyran-4-yl)benzimidazole] as the compound, how does the “Activity (potentiation of NGF activity)” value read?
The value was “++”.

`C(#Cc1nc2cc(-c3nc4ccccc4o3)ccc2n1C1CCOCC1)c1ccccc1` [Ex. 69, 5-(benzoxazol-2-yl)-2-(2-phenylethynyl)-1-(tetrahydropyran-4-yl)benzimidazole] was tested. Which “Activity (potentiation of NGF activity)” value did it give?
Its value is “++”.

`Cc1nc2cc(-c3nc4cc(C5CCCCC5)ccc4o3)ccc2n1C1CCOCC1` [Ex. 72, 5-(5-cyclohexylbenzoxazol-2-yl)-2-methyl-1-(tetrahydropyran-4-yl)benzimidazole] was tested. Which “Activity (potentiation of NGF activity)” value did it give?
Its value is “++”.

Which “Activity (potentiation of NGF activity)” value does the source give for `Cc1nc2cc(-c3nc4cc(C#N)ccc4o3)ccc2n1C1CCOCC1` [Ex. 75, 5-(5-cyanobenzoxazol-2-yl)-2-methyl-1-(tetrahydropyran-4-yl)benzimidazole] here?
Its value is “++”.

For `Cc1nc2cc(-c3nc4cc(OC(F)(F)F)ccc4o3)ccc2n1C1CCOCC1` [Ex. 76, 5-(5-trifluoromethoxybenzoxazol-2-yl)-2-methyl-1-(tetrahydropyran-4-yl)benzimidazole], which “Activity (potentiation of NGF activity)” value is on record?
Its value is “++”.

Which “Activity (potentiation of NGF activity)” value does the source give for `ClC(Cl)(Cl)c1nc2cc(-c3nc4ccccc4o3)ccc2n1C1CCOCC1` [Ex. 77, 5-(benzoxazol-2-yl)-1-(tetrahydropyran-4-yl)-2-trichloromethylbenzimidazole] here?
The value was “+”.

`Cc1nc2cc(-c3nc4ccccc4o3)ccc2n1C1CCC(=O)CC1` [Ex. 78, 5-(benzoxazol-2-yl)-1-(cyclohexanon-4-yl)-2-methylbenzimidazole] was tested. Which “Activity (potentiation of NGF activity)” value did it give?
The value was “++”.

For `Cc1nc2cc(-c3nc4ccccc4o3)ccc2n1Cc1ccccn1` [Ex. 79, 5-(benzoxazol-2-yl)-2-methyl-1-(2-picolyl)benzimidazole], which “Activity (potentiation of NGF activity)” value is on record?
The value was “++”.

With `Cc1nc2cc(-c3nc4ccccc4o3)ccc2n1CCC1CCOCC1` [Ex. 83, 5-(benzoxazol-2-yl)-2-methyl-1-(2-(tetrahydropyran-4-yl)ethyl)benzimidazole] as the compound, how does the “Activity (potentiation of NGF activity)” value read?
Its value is “++”.

`Cc1nc2cc(-c3nc4ccccc4o3)ccc2n1CC1CCOCC1` [Ex. 84, 5-(benzoxazol-2-yl)-2-methyl-1-((tetrahydropyran-4-yl)methyl)benzimidazole] was tested. Which “Activity (potentiation of NGF activity)” value did it give?
The value was “++”.

With `CCOC(=O)Cc1nc2cc(-c3nc4ccccc4o3)ccc2n1C1CCOCC1` [Ex. 86, 5-(benzoxazol-2-yl)-2-(ethoxycarbonylmethyl)-1-(tetrahydropyran-4-yl)benzimidazole] as the compound, how does the “Activity (potentiation of NGF activity)” value read?
Its value is “++”.

How did the “Activity (potentiation of NGF activity)” value turn out when `Cc1nc2cc(-c3nc4ccccc4o3)ccc2n1C1CCCc2ccccc21` (stereo not drawn) [Ex. 87, 5-(benzoxazol-2-yl)-2-methyl-1-(1,2,3,4-tetrahydronaphthalen-1-yl)benzimidazole] was run?
Its value is “++”.

For `Cc1nc2cc(-c3nc4ccccc4o3)ccc2n1C(c1ccccc1)c1ccccc1` [Ex. 89, 5-(benzoxazol-2-yl)-2-diphenylmethyl-2-methylbenzimidazole], which “Activity (potentiation of NGF activity)” value is on record?
The value was “++”.

With `c1ccc2oc(-c3ccc4c(c3)nc(C3CCCO3)n4C3CCOCC3)nc2c1` (stereo not drawn) [Ex. 90, 5-(benzoxazol-2-yl)-2-(tetrahydrofuran-2-yl)-1-(tetrahydropyran-4-yl)benzimidazole] as the compound, how does the “Activity (potentiation of NGF activity)” value read?
Its value is “++”.

How did the “Activity (potentiation of NGF activity)” value turn out when `Cc1nc2cc(-c3nc4ccccc4o3)ccc2n1CC(=O)O` [Ex. 92, 5-(benzoxazol-2-yl)-1-carboxymethyl-2-methylbenzimidazole] was run?
The value was “++”.

With `Cc1nc2cc(-c3nc4ccccc4o3)cc(C(F)(F)F)c2n1C1CCOCC1` [Ex. 94] as the compound, how does the “Activity (potentiation of NGF activity)” value read?
The value was “++”.

How did the “Activity (potentiation of NGF activity)” value turn out when `Cc1nc2cc(-c3nc4ccccc4o3)ccc2n1CCCN1CCOCC1` [Ex. 96, 5-(benzoxazol-2-yl)-2-methyl-1-(3-(morpholine-4-yl)propyl)benzimidazole] was run?
Its value is “++”.
